Values of other authors in patent US20080044462A1 (Collegium Pharmaceutical, Inc. Delaware, priority 2006, published 2008).

Conditions: background statement, no test described

- stability in the presence of oxygen: highly unstable
SMILES: CC(NC(C)(C)C)C(=O)c1cccc(Cl)c1 (stereo not shown) [free base form of bupropion, 1-(3-chlorophenyl)-2[(1,1,dimethylethyl)amino]-1-propanone]
